Measured values: patent US11471390B2, “Pseudoceramide compound and use thereof” (DAEBONG LS, LTD, priority 2017, dated 2022)

System: Raw264.7 macrophage cells
Test: Cell viability of Raw264.7 macrophage cells by MTT assay (cytotoxicity)
Format: cell-based
Conditions: Raw264.7, MTT
Experimental: The cell viabilities of Raw264.7 macrophage cells were assessed by MTT assay to evaluate the cytotoxicities of the pseudoceramide compounds. When the cell viability was ≥80% by MTT assay, the pseudoceramide compound was judged to be not cytotoxic. The cell viabilities of the pseudoceramide compounds were […] at concentrations of 1-50 μg/mL, indicating no toxicity to Raw264.7 macrophage (Table 1). Another experiment for anti-inflammatory effects of the pseudoceramide compounds was conducted at concentrations of 1-50 μg/mL.

Structure (SMILES) | Cell viability (%) (10 μM) | Cell viability (%) (concentration 5.0 (μg/mL)) | Cell viability (%) (concentration 10.0 (μg/mL)) | Cell viability (%) (concentration 25.0 (μg/mL)) | Cell viability (%) (concentration 50.0 (μg/mL))
Cc1ccnc(N)c1 [2-Amino-4-methylpyridine, reference compound] | 103.13% |  |  |  | 
CC/C=C\C/C=C\C/C=C\CCCCCCCC(=O)NC(CO)CO [Example 3, (9Z,12Z,15Z)—N-(1,3-dihydroxypropan-2-yl)octadeca-9,12,15-trienamide] |  | 95.72% | 101.01% | 96.58% | 96.64%
CCCCCCCC/C=C\CCCCCCCC(=O)NC(CO)CO [Example 1, N-(1,3-dihydroxypropan-2-yl)oleamide] |  | 100.99% | 102.08% | 102.14% | 102.22%
CCCCC/C=C\C/C=C\CCCCCCCC(=O)NC(CO)CO [Example 2, (9Z,12Z)—N-(1,3-dihydroxypropan-2-yl)octadeca-9,12-dienamide] |  | 100.35% | 100.24% | 100.09% | 93.80%
